Laboratory results reported in patent US20250145589A1, “PYRIDINE DERIVATIVE AND USE THEREOF” (SICHUAN HUIYU PHARMACEUTICAL CO., LTD., priority 2021, published 2025).
Read-outs that look alike come from different tables or passages of the source.

Legend:
PI3Kδ = PI3Kδ (Homo sapiens (Human), UniProt O00329); test: Inhibition of PI3Kδ efficacy assay (ADP-Glo kinase assay); type: biochemical; conditions: read-out: PI3Kδ inhibitory activity (IC50)
Description: Test Example 2: Inhibition of PI3Kδ Efficacy assay The ADP-Glo™ kinase assay was used to assess the inhibition of PI3Kδ with our compounds. The utilized proteins and assay reagents were obtained from the ADP-Glo™ Kinase Assay Kit (Promega). Initially, a 2 mM stock solution of the test compound (dissolved in DMSO) was serially diluted in five-fold concentrations using DMSO to obtain eight working solutions 1 (200×) Subsequently, each of the eight working solutions 1 was further diluted in a 20-fold gradient by adding 5 μL into 95 μL of ddH2O, resulting in eight working solutions 2 (10×). […] Subsequently, 2 μL of 2.5×PI and ATP solution mixture were added to each well, mixed, and incubated at RT for 60 minutes. Then, 5 μL of ADP-Glo (containing 10 mM MgCl2) reagent was added to each well, mixed, and incubated at RT for 40 minutes. Finally, 10 μL of the Kinase Detection Reagent was added to each well, mixed, and incubated at RT for 40 minutes. Luminescence values were recorded using a multi-mode microplate reader with luminescence channel settings, and the inhibitory rate was calculated using the following formula: [formula] Data were analyzed using GraphPad Prism with log(inhibitor) vs. response—Variable Slope(four parameters) fitting calculations for IC50 values.

[1] = tested on: NCI-H358 cells (KRAS G12C mutant); test: NCI-H358 cell proliferation inhibition (CellTiter-Glo); type: cell-based; conditions: Homo sapiens, NCI-H358, 72 h; H358 cells (G12C mutation), 3 days, Table 6; read-out: NCI-H358 (IC50)
PI3Kα = PI3Kα (Homo sapiens (Human), UniProt P42336); test: Inhibition of PI3Kα efficacy assay (ADP-Glo kinase assay); type: biochemical; conditions: read-out: PI3Kα inhibitory activity (IC50)
Outline: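 ADP-Glo luminescent detection of ADP from PI3Kα acting on PI substrate with ATP, 60 min at RT; compounds in 8-point five-fold serial dilution from 2 mM DMSO stock. IC50 from four-parameter variable-slope fit.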

Sequence of PI3Kα (P42336 whole entry): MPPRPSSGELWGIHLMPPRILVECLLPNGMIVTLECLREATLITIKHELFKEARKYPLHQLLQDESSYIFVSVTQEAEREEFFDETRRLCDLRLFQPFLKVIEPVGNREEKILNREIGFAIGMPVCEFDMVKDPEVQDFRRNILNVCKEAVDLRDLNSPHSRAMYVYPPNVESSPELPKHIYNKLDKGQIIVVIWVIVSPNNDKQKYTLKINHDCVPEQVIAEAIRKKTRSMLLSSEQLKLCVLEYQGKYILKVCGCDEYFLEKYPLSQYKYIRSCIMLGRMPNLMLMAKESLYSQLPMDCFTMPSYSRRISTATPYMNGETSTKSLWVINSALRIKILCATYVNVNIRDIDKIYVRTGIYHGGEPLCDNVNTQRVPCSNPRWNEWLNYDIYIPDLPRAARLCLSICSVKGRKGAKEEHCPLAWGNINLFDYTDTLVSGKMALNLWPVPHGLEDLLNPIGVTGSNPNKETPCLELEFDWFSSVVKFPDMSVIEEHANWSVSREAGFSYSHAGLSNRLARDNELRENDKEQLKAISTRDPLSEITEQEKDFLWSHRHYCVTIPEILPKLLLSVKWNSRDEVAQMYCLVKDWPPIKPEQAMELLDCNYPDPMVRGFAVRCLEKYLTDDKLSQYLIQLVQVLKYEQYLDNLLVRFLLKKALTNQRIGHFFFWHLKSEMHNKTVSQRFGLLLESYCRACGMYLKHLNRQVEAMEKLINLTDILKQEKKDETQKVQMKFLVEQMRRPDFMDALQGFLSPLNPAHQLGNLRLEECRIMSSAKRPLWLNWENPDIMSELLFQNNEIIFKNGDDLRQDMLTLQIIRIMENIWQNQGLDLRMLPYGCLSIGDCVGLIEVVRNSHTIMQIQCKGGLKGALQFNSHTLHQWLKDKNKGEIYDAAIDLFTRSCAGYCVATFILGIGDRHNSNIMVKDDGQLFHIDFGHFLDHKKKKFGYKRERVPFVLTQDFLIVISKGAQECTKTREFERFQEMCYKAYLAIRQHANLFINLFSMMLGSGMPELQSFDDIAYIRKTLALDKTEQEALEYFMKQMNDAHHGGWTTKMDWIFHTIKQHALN
Sequence of PI3Kα (P27986 whole entry partner): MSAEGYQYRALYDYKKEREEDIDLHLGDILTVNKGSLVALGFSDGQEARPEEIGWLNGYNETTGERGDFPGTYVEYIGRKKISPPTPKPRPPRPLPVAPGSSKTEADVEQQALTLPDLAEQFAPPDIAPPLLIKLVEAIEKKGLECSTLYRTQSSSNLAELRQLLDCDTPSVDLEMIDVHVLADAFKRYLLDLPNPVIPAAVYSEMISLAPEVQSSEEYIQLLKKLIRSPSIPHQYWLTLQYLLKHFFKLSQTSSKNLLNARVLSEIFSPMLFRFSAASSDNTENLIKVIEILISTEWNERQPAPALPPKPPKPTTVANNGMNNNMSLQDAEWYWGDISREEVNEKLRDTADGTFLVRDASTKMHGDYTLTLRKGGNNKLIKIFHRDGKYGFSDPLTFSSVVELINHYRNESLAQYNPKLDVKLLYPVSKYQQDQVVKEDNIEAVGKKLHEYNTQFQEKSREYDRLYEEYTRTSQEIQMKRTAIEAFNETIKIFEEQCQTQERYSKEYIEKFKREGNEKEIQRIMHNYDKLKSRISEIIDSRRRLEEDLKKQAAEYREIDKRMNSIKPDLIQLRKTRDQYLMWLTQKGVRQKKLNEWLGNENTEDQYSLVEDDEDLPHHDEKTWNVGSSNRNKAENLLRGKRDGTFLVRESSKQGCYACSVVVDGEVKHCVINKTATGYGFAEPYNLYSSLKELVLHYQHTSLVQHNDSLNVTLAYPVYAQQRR
Sequence of PI3Kδ (O00329 whole entry): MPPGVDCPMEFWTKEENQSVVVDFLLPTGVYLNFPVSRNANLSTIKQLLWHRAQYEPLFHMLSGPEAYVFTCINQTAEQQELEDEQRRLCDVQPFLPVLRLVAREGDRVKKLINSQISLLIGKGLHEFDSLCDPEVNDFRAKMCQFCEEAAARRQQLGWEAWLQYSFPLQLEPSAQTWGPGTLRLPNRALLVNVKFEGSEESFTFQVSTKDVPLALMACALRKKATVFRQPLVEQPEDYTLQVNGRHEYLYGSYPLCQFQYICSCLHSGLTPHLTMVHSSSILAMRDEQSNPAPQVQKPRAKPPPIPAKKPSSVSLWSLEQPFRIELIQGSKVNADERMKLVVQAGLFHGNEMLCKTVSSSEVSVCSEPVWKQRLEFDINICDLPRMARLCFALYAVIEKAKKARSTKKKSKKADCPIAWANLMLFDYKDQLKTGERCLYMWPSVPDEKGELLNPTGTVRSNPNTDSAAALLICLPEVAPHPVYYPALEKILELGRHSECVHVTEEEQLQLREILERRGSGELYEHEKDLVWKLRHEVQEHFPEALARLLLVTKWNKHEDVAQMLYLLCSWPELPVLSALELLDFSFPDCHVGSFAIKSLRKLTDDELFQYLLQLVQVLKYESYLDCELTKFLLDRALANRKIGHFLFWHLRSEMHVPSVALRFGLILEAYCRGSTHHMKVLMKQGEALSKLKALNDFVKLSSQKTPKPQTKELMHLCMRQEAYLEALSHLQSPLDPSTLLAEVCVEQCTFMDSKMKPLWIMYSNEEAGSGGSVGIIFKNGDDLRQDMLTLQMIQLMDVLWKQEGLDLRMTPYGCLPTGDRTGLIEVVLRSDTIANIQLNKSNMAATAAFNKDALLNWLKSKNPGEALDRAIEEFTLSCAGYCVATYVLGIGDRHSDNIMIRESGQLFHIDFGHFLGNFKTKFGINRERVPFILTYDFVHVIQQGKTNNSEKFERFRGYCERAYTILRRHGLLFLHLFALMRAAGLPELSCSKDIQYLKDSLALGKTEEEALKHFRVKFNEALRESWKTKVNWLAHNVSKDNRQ
Sequence of PI3Kδ (P27986 whole entry partner): as the sequence (P27986 whole entry partner) above

Compound	IC50 (PI3Kδ; Table 1) [nM]	IC50 [1] [nM]	IC50 (PI3Kα; Table 1) [nM]	IC50 (PI3Kδ; Table 2) [nM]	IC50 (PI3Kα; Table 2) [nM]
COc1ncc(-c2ccc3ncnc(N4CCN(C(=O)/C=C/C(C)=O)CC4)c3c2)cc1NS(=O)(=O)C1CCCCC1 [Example 26, (E)-N-(2-methoxy-5-(4-(4-(4-oxopent-2-enoyl)piperazin-1-yl)quinazolin-6-yl)pyridin-3-yl)cyclohexanesulfonamide]	265	142	44.6	–	–
C=C(F)C(=O)N1CC(N2CCN(c3ncnc4ccc(-c5cnc(OC)c(NS(=O)(=O)c6ccc(F)cc6F)c5)cc34)CC2)C1 [Example 57, 2,4-difluoro-N-(5-(4-(4-(1-(2-fluoroacryloyl)azetidin-3-yl)piperazin-1-yl)quinazolin-6-yl)-2-methoxypyridin-3-yl)benzenesulfon-amide]	–	29.9	–	33.4	1.9
C=C(F)C(=O)N1CCN(c2ncnc3ccc(-c4cnc(OC)c(NS(=O)(=O)c5ccc(F)cc5F)c4)cc23)C[C@@H]1CC#N [Example 113, (S)-N-(5-(4-(3-(cyanomethyl)-4-(2-fluoroacryloyl)piperazin-1-yl)quinazolin-6-yl)-2-methoxypyridin-3-yl)-2,4-difluorobenzenesulfonamide]	–	58	–	11.5	2.9
C=CC(=O)N1CCN(c2ncnc3ccc(-c4cnc(Cl)c(NS(=O)(=O)c5ccc(Cl)s5)c4)cc23)CC1 [Example 35, N-(5-(4-(4-acryloylpiperazin-1-yl)quinazolin-6-yl)-2-chloropyridin-3-yl)-5-chlorothiophene-2-sulfonamide]	117	900	5.8	–	–
CC(=O)/C=C/C(=O)N1CCN(c2ncnc3ccc(-c4cnc(Cl)c(NS(=O)(=O)c5ccc(Cl)s5)c4)cc23)CC1 [Example 36, (E)-5-chloro-N-(2-chloro-5-(4-(4-(4-oxopent-2-enoyl)piperazin-1-yl)quinazolin-6-yl)pyridin-3-yl)thiophene-2-sulfonamide]	140	278	21.5	–	–
C=C(F)C(=O)N1CC2(CCN(c3ncnc4ccc(-c5cnc(OC)c(NS(=O)(=O)c6ccc(F)cc6F)c5)cc34)CC2)C1 [Example 19, 2,4-difluoro-N-(5-(4-(2-(2-fluoroacryloyl)-2,7-diazaspiro[3.5]nonan-7-yl)quinazolin-6-yl)-2-methoxypyridin-3-yl)benzenesulfonamide]	57.8	22	4.7	–	–
C=C(F)C(=O)N1CCN(c2ncnc3ccc(-c4cnc(OC)c(NS(=O)(=O)c5ccc(F)cn5)c4)cc23)CC1 [Example 120, 5-fluoro-N-(5-(4-(4-(2-fluoroacryloyl)piperazin-1-yl)quinazolin-6-yl)-2-methoxypyridin-3-yl)pyridine-2-sulfonamide]	–	94.9	–	11.5	3
C=CC(=O)N1CCN(c2ncnc3ccc(-c4cnc(OC)c(NS(=O)(=O)c5ccccc5)c4)cc23)CC1 [Example 24, N-(5 (4-(4-acryloylpiperazin-1-yl)quinazolin-6-yl)-2-methoxypyridin-3-yl)benzenesulfonamide]	6.3	123	2.9	–	–
C=CC(=O)N1CCN(c2ncnc3c2CN(c2cnc(OC)c(NS(=O)(=O)c4ccc(F)cc4F)c2)CC3)CC1 [Example 41, N-(5-(4-(4-acryloylpiperazin-1-yl)-7,8-dihydropyrido[4,3-d]pyrimidin-6 (5H)-yl)-2-methoxypyridin-3-yl)-2,4-difluorobenzenesulfonamide]	10.1	4290	7.6	–	–
C=CC(=O)N1CCN(c2ncnc3ccc(-c4cnc(OC)c(NS(=O)(=O)C5CCCCC5)c4)cc23)CC1 [Example 25, N-(5-(4-(4-acryloylpiperazin-1-yl)quinazolin-6-yl)-2-methoxypyridin-3-yl)cyclohexanesulfonamide]	127	288	26.9	–	–
C=CC(=O)N1CCN(c2ncnc3ccc(-c4cnc(OC)c(NS(=O)(=O)c5c(F)cccc5F)c4)cc23)CC1 [Example 21, N-(5-(4-(4-acryloylpiperazin-1-yl)quinazolin-6-yl)-2-methoxypyridin-3-yl)-2,6-difluorobenzenesulfonamide]	58.2	27	5.8	–	–
COc1ncc(-c2ccc3ncnc(N4CCN(C(=O)/C=C/P(C)(C)=O)CC4)c3c2)cc1NS(=O)(=O)c1ccc(F)cc1F [Example 76, (E)-N-(5-(4-(4-(3-(dimethylphosphoryl)acryloyl)piperazin-1-yl)quinazolin-6-yl)-2-methoxypyridin-3-yl)-2,4-difluorobenzenesulfonamide]	–	3420	–	25.3	7.5

Continued, values first:

IC50 (PI3Kδ; Table 1) [nM]	IC50 [1] [nM]	IC50 (PI3Kα; Table 1) [nM]	IC50 (PI3Kδ; Table 2) [nM]	IC50 (PI3Kα; Table 2) [nM]	Compound
62.1	233	9.5	–	–	C=CC(=O)N1C[C@H](C)N(c2ncnc3ccc(-c4cnc(OC)c(NS(=O)(=O)c5ccc(F)cc5F)c4)cc23)C[C@H]1C [Example 14, N-(5-(4-((2S,5R)-4-acryloyl-2,5-dimethylpiperazin-1-yl)quinazolin-6-yl)-2-methoxypyridin-3-yl)-2,4-difluorobenzenesulfonamide]
–	67.9	–	11.8	2.8	C=CC(=O)N1CCN(c2ncnc3ccc(-c4cnc(OC)c(NS(=O)(=O)c5ccc(F)cn5)c4)cc23)CC1 [Example 119, N-(5-(4-(4-acryloylpiperazin-1-yl)quinazolin-6-yl)-2-methoxypyridin-3-yl)-5-fluoropyridine-2-sulfonamide]
12.5	60.1	1.2	–	–	C=CC(=O)N1CC2(CCN(c3ncnc4ccc(-c5cnc(OC)c(NS(=O)(=O)c6ccc(F)cc6F)c5)cc34)CC2)C1 [Example 18, N-(5-(4-(2-acryloyl-2,7-diazaspiro[3.5]nonan-7-yl)quinazolin-6-yl)-2-methoxypyridin-3-yl)-2,4-difluorobenzenesulfonamide]
–	13.5	–	14.8	13.8	C=C(OC)C(=O)N1CCN(c2ncnc3ccc(-c4cnc(OC)c(NS(=O)(=O)c5ccc(F)cc5F)c4)cc23)CC1 [Example 66, 2,4-difluoro-N-(2-methoxy-5-(4-(4-(2-methoxy-acryloyl)piperazin-1-yl)quinazolin-6-yl)pyridin-3-yl) benzene-sulfonamide]
28.5	35.2	0.26	–	–	COc1ncc(-c2ccc3ncnc(N4CCN(C(=O)/C=C/CF)CC4)c3c2)cc1NS(=O)(=O)c1ccc(F)cc1F [Example 16, (E)-2,4-difluoro-N-(5-(4-(4-(4-fluorobut-2-enoyl)piperazin-1-yl)quinazolin-6-yl)-2-methoxypyridin-3-yl)benzenesulfonamide]
–	52.6	–	13.2	0.63	C=C(F)C(=O)N1CC2(CCN(c3ncnc4ccc(-c5cnc(OC)c(NS(=O)(=O)c6c(F)cccc6F)c5)cc34)C2)C1 [Example 48, 2,6-difluoro-N-(5-(4-(2-(2-fluoroacryloyl)-2,6-diazaspiro[3.4]octan-6-yl)quinazolin-6-yl)-2-methoxypyridin-3-yl) benzenesulfonamide]
–	15.1	–	12.5	11.8	COc1ncc(-c2ccc3ncnc(N4CCN(C(=O)/C=C/c5ncco5)CC4)c3c2)cc1NS(=O)(=O)c1ccc(F)cc1F [Example 62, (E)-2,4-difluoro-N-(2-methoxy-5-(4-(4-(3-(oxazol-2-yl)acryloyl)piperazin-1-yl)quinazolin-6-yl)pyridin-3-yl) benzene-sulfonamide]
–	72.2	–	23.9	5	COc1ncc(-c2ccc3ncnc(N4CCN(C(=O)/C=C/C(C)=O)[C@@H](CC#N)C4)c3c2)cc1NS(=O)(=O)c1ccc(F)cc1F [Example 112, (S,E)-N-(5-(4-(3-(cyanomethyl)-4-(4-oxopent-2-enoyl)piperazin-1-yl)quinazolin-6-yl)-2-methoxypyridin-3-yl)-2,4-difluorobenzenesulfonamide]
77.4	50.6	9.3	–	–	C=CC(=O)N1CC2(CCN(c3ncnc4ccc(-c5cnc(OC)c(NS(=O)(=O)c6ccc(F)cc6F)c5)cc34)C2)C1 [Example 12, N-(5-(4-(2-acryloyl-2,6-diazaspiro[3.4]octan-6-yl)quinazolin-6-yl)-2-methoxypyridin-3-yl)-2,4-difluorobenzenesulfonamide]
–	405	–	794	126	CC(=O)/C=C/C(=O)N1CCN(c2ncnc3ccc(-c4cnc(OC5CCCC5)c(NS(=O)(=O)c5ccc(F)cc5F)c4)cc23)CC1 [Example 107, (E)-N-(2-(cyclopentyloxy)-5-(4-(4-(4-oxopent-2-enoyl)piperazin-1-yl)quinazolin-6-yl)pyridin-3-yl)-2,4-difluorobenzenesulfonamide]
